Experimental data published in ChEMBL document CHEMBL2424624, “Syntheses and antitumor activities of N'1,N'3-dialkyl-N'1,N'3-di-(alkylcarbonothioyl) malonohydrazide: the discovery of elesclomol” (Bioorg Med Chem Lett, 2013).

What was measured:
Format in all cases: ADME, organism-based
[1] = AUC in nu/nu mouse at 5 mg/kg in presence of STA-4783; design: dose 5 mg/kg; details: plasma
[2] = Half life in nu/nu mouse at 5 mg/kg in presence of STA-4783; design: dose 5 mg/kg; details: in vivo
[3] = AUC in rat at 5 mg/kg in presence of STA-4783; design: dose 5 mg/kg; details: plasma
[4] = Cmax in rat at 5 mg/kg in presence of STA-4783; design: dose 5 mg/kg; details: in vivo
[5] = Cmax in nu/nu mouse at 5 mg/kg in presence of STA-4783; design: dose 5 mg/kg; details: in vivo
[6] = Apparent terminal half life in Sprague-Dawley rat at 25 mg/kg, iv; design: dose 25 mg/kg, route intravenous; details: in vivo, read-out: betat1/2(app) (converted)
[7] = Cmax in Sprague-Dawley rat at 25 mg/kg, iv; design: dose 25 mg/kg, route intravenous; details: in vivo
[8] = Volume of distribution at steady state in Sprague-Dawley rat at 25 mg/kg, iv; design: dose 25 mg/kg, route intravenous; details: in vivo, read-out: Vdss
[9] = Cmax in rat at 5 mg/kg; design: dose 5 mg/kg; details: in vivo
[10] = Half life in rat at 5 mg/kg; design: dose 5 mg/kg; details: in vivo
[11] = AUC in nu/nu mouse at 25 mg/kg in presence of taxol; design: dose 25 mg/kg; details: plasma
[12] = Apparent terminal half life in nu/nu mouse at 25 mg/kg, iv; design: dose 25 mg/kg, route intravenous; details: in vivo, read-out: betat1/2(app) (converted)
[13] = Clearance in Sprague-Dawley rat at 25 mg/kg, iv; design: dose 25 mg/kg, route intravenous; details: in vivo
[14] = AUC in Sprague-Dawley rat at 25 mg/kg, iv; design: dose 25 mg/kg, route intravenous; details: plasma
[15] = AUC in rat at 25 mg/kg in presence of taxol; design: dose 25 mg/kg; details: plasma
[16] = Cmax in rat at 25 mg/kg in presence of taxol; design: dose 25 mg/kg; details: in vivo
[17] = Clearance in nu/nu mouse at 25 mg/kg, iv; design: dose 25 mg/kg, route intravenous; details: in vivo
[18] = Cmax in nu/nu mouse at 25 mg/kg, iv; design: dose 25 mg/kg, route intravenous; details: in vivo
[19] = Cmax in nu/nu mouse at 25 mg/kg in presence of taxol; design: dose 25 mg/kg; details: in vivo
[20] = Half life in rat at 25 mg/kg in presence of taxol; design: dose 25 mg/kg; details: in vivo
[21] = Volume of distribution at steady state in nu/nu mouse at 25 mg/kg, iv; design: dose 25 mg/kg, route intravenous; details: in vivo, read-out: Vdss
[22] = AUC in nu/nu mouse at 25 mg/kg, iv; design: dose 25 mg/kg, route intravenous; details: plasma
[23] = AUC in rat at 5 mg/kg; design: dose 5 mg/kg; details: plasma
[24] = Half life in nu/nu mouse at 25 mg/kg in presence of taxol; design: dose 25 mg/kg; details: in vivo

Compound `CC(=O)O[C@H]1C(=O)[C@@]2(C)[C@H]([C@H](OC(=O)c3ccccc3)[C@]3(O)C[C@H](OC(=O)[C@H](O)[C@@H](NC(=O)c4ccccc4)c4ccccc4)C(C)=C1C3(C)C)[C@]1(OC(C)=O)CO[C@@H]1C[C@@H]2O` [PACLITAXEL] has an AUC [1] of 2.95 µM·h, a half-life [2] of 2.26 h and an AUC [3] of 11.9 µM·h. The Cmax [4] was 20.4 µM and the Cmax [5] was 10.6 µM.

In the case of `CN(NC(=O)CC(=O)NN(C)C(=S)c1ccccc1)C(=S)c1ccccc1` [ELESCLOMOL], the half-life [6] was 1.94 h, the Cmax [7] was 56.3 µM and the Vd [8] was 0.1 L/kg. It also gave a Cmax [9] of 21.7 µM, a half-life [10] of 3.1 h and an AUC [11] of 11.9 µM·h. The half-life [12] was 1.9 h, the clearance [13] was 13.2 mL/min/kg and the AUC [14] was 32.7 µM·h. For the same compound, the AUC [15] was 36.8 µM·h, the Cmax [16] was 63.3 µM and the clearance [17] was 29 mL/min/kg. For the same compound, the Cmax [18] was 85.2 µM, the Cmax [19] was 37.8 µM and the half-life [20] was 1.7 h. For the same compound, the Vd [21] was 0.51 L/kg, the AUC [22] was 35.9 µM·h and the AUC [23] was 10.3 µM·h. It also gave a half-life [24] of 1.2 h.
